Ends that are not written are not given here.
Assays:
[1] = system: P. aeruginosa ATCC 27853 cells; assay: Cytoplasmic membrane depolarization, diSC3-5; type: cell-based, Pseudomonas aeruginosa ATCC 27853; conditions: 1/2 MIC, 0s to 1,020s
Description: The cytoplasmic membrane depolarization of peptides was analyzed with membrane potential-sensitive dye DISC3-5 ([Ma et al., 2011]). First, 0.4μM DISC3-5 (Sigma-Aldrich, Shanghai, China) was incubated with the P. aeruginosa ATCC 27853 cells (OD600=0.05) suspended in 5mM HEPES buffer supplied with 20mM glucose for 1h. Then 100mMK^+ was introduced into the mixture for the reason of keeping K^+ concentration equilibration of bacterial cytoplasmic and extracellular conditions. Afterward, the peptides were reacted with the bacterial cells and the fluorescence value was tracked over time to plot the fluorescence curve (excitation λ=622nm, emission λ=670nm).

[2] = system: S.aureus 29213; type: cell-based, Staphylococcus aureus ATCC 29213; conditions: 29213
Excerpt: (§1) The tested strains were kindly provided by the laboratory of Veterinary Microbiology and Immunology, the College of Veterinary Medicine, Northeast Agricultural University (gram-negative bacteria, Salmonella enterica serovar typhimurium C77-31, Salmonella typhimurium ATCC 14028, Escherichia coli ATCC 25922, Pseudomonas aeruginosa ATCC 27853 and gram-positive bacteria, Staphylococcus aureus ATCC 29213, Staphylococcus aureus ATCC 43300, Staphylococcus epidermidis ATCC 12228, Staphylococcus aureus ATCC 25923).
(§2) The famous microtiter dilution, National Committee for Clinical Laboratory Standards, was adopted to measure the antimicrobial ability of the engineering peptides ([Chou et al., 2016]). In brief, the 50μl with serial dilution was incubated with the same volume bacteria (1×10^5CFU/ml in midi-logarithmic phase) in a 96-well plate 18–24h at 37°C. The positive control was the bacteria treated with culture medium and the negative control was merely culture medium. The MICs (minimum inhibitory concentrations) were defined as the lowest concentration of peptides that prevented the production of visible turbidity ([Tossi et al., 2000]).

[3] = system: panel of gram-negative and gram-positive bacteria; conditions: over the eight strains of Table 2
Description: as §2

[4] = system: S.aureus 25923; type: cell-based, Staphylococcus aureus ATCC 25923; conditions: 25923
Excerpt: as §1, §2

[5] = system: MRSA 43300; type: cell-based, Staphylococcus aureus ATCC 43300; conditions: microtiter dilution, 1×10^5CFU/ml, 18–24h at 37°C, visible turbidity
Excerpt: as §1, §2

[6] = system: Pseudomonas aeruginosa ATCC 27853; assay: Subcutaneous abscess model
Description: The in vivo antimicrobial performance of peptides was assessed by the treatment effect of the subcutaneous bacterial abscess model ([Pletzer et al., 2017]). In brief, 24 female ICR mice (weighted 18–20g, WeiTonglihua Co., Ltd. (Beijing)) were divided into four groups and each group contained 6 mice (n=6). […] Then, the Pseudomonas aeruginosa ATCC 27853 cells (100μl, 10^8CFU/ml) were injected into the subcutaneous layer of the dorsum skin. […] The non-infected mice served as a control, which was infected and treated with saline.
The therapeutic effect of peptides was further evaluated by colony counting, and the appearance and the level of inflammatory cytokine ([Tan et al., 2020]). The appearance of abscesses was taking photos and the area of dermonecrotic tissue was measured and calculated with calipers at Day 3. The infected skin on the back of the mouse was harvested entirely and homogenized with saline at Day 3. The homogenate of abscess was spread on the MHA plates and cultivated for 18–24h at 37°C. Then the bacterial colony was counted for data analysis. The serum was collected for proinflammatory cytokines (TNF-α, IL-1α, IL-1β, and IL-2) tests at Day 3. The cytokine levels were determined by commercial ELISA kits (Nanjing Jiancheng Bioengineering Institute, Nanjing, China).
The histopathology of abscesses lesions was further analyzed by hematoxylin/eosin (HE) staining (Aladdin, Shanghai, China). The tissue samples at Day 3 were excised and fixed in 4% paraformaldehyde solution. In addition, the cell nuclei were stained blue and the cytoplasm was stained pink.

[7] = system: E. coli 25922; type: cell-based, Escherichia coli ATCC 25922
Excerpt: as §1

[8] = system: RAW 264.7 cells; type: cell-based, murine; conditions: RAW264.7; ratio of IC50 to GM
Description: The MTT (3-[4,5 dimethylthiozol-2-yl]-2,5-diphenylterazoliumbromide) dye was selected to analyze the cytotoxicity of peptides against the murine macrophage cell RAW 264.7 (National Collection of Authenticated Cell Cultures, Shanghai, China), human embryonic kidneys (HK293T), and the porcine intestinal epithelial cells (IPEC-J2) as in our previously study ([Li et al., 2020]). In short, the cells (10^4 cells/well) were seeded into 96-well plates and were cultivated overnight. Then the peptides with different final concentration (2μM, 4μM, 8μM, 16μM, 32μM, 64μM, and 128μM) were introduced into the plate and challenged with cells for 24h. After overnight incubation, the 50μl MTT (0.5mg/ml) was added into the cell cultures for 4h. Then the plate was centrifuged to discard the supernatants and obtain the formazan crystals. The DMSO (dimethyl sulfoxide) was employed as a solvent to dissolve the formazan crystals on the bottom of the plate and the optical density was read at 492nm with a microplate reader.

[9] = system: S.typhimurium 7731; type: cell-based, Salmonella enterica serovar typhimurium C77-31
Excerpt: as §1

[10] = system: P. aeruginosa ATCC 27853; assay: Transmission electron microscope; type: cell-based, Pseudomonas aeruginosa ATCC 27853; conditions: MIC (1μM)
Excerpt: The sample for the test of the Transmission Electron Microscope (TEM) was to follow the same procedure as SEM. After the overnight pre-fixation with 2.5% glutaraldehyde, the bacteria was then post-fixed with 2% osmium tetroxide (sealed ampule, Shanghai, China). Afterward, the samples were dehydrated with ethanol at a series of concentrations (50, 70, 90, and 100%) and substituted the 100% ethanol with 50% ethanol+50% acetone, 100% acetone, 50% acetone+50% epoxy resin, and 100% epoxy resin successively. Finally, the samples were sectioned and stained for observation.

[11] = system: human red blood cells (hRBCs); assay: Hemolytic activity; type: cell-based; conditions: hRBC; ratio of MHC to GM
Excerpt: The hemolytic activity of peptides was reflected by the releasing amount of hemoglobin from erythrocytes lysis induced by peptides ([Dong et al., 2014a]). The informed consent was obtained from the volunteers (3 healthy 25-year-old male volunteers) before the experiment. In brief, the human red blood cells (hRBCs), donated by volunteer, were collected, washed, and resuspended in PBS at pH 7.2. The peptides were serially diluted in PBS at different concentrations in a 96-well cell cultures plate and incubated with 50μl hRBCs for 1h at 37°C. The 0.1% Trition X-100 was selected as the treatment of positive control and the negative control was the hRBCs treated with PBS. After 1h incubation, the supernatant, obtained by centrifuging the plate 1,000g for 5min, was transferred to a brand-new plate for absorbance detection at 570nm. The releasing amount of hemoglobin was converted to the percent hemolysis against to 0.1% Triton X-100 treatment. The lowest concentration caused 5% hemolysis of hRBCs and was defined as the lowest hemolytic concentration of antimicrobial peptide.

VKKWVKKWVKKWVKKW-NH2 [VW5]
cytoplasmic membrane depolarization, diSC3-5 fluorescence over time [1]: dose-dependent effect | MIC [2]: 2 µM | GMMIC, geometric mean of the MICs [3]: 1.68 µM | MIC [4]: 2 µM | MIC [5]: 2 µM | bacterial load in the abscess lesion ([6]; 5mg/kg intraperitoneally twice a day, Day 3, n=6): 12.72±2.26 ×10^9CFU/abscess | IL-1β in serum ([6]; 5mg/kg, Day 3, ELISA, saline 95.99±4.31): 72.36 ± 4.15 pg/mL | IL-1α in serum ([6]; 5mg/kg, Day 3, ELISA, saline 99.95±4.71): 79.82 ± 4.79 pg/mL | TNF-α in serum ([6]; 5mg/kg, Day 3, ELISA, saline 1020.654±51.08): 756.62 ± 39.12 pg/mL | IL-2 in serum ([6]; 5mg/kg, Day 3, ELISA, saline 1492.65±48.11): 1296.25 ± 150.86 pg/mL | histological examination of abscess lesion, dermal tissue structures ([6]; 5mg/kg, HE staining, Day 3): relative integrity | MIC [7]: 2 µM | Therapeutic index (TI) [8]: 1860.86 | MIC [9]: 1 µM | ultrastructure (TEM) [10]: cellular contents of bacterial cells leaked | Therapeutic index (TI) [11]: > 76.19

Reference: PMC8548882, “The Trp-rich Antimicrobial Amphiphiles With Intramolecular Aromatic Interactions for the Treatment of Bacterial Infection” (Frontiers in Microbiology, 2021)
